Data reported in the supplement of paper PMC8882468.

Experiments:
Assay in all cases: CTG-3D luminescence at 96 h relative to day-0 seeding control (ratio to day 0); higher = more growth / less cytotoxicity; PDxO 3D drug screen, 96 h, CTG-3D normalised to day-0 seeding control.
HCI-008 = test system: HCI-008 (organoid from a HER2-enriched breast cancer xenograft)
HCI-010 = test system: HCI-010 (organoid from a breast cancer xenograft)
HCI-011.E2 = test system: HCI-011.E2 (organoid from an ER-positive breast cancer xenograft)
HCI-023 = test system: HCI-023 (organoid from a triple-negative breast cancer xenograft)
HCI-025 = test system: HCI-025 (organoid from a breast cancer xenograft)
HCI-027 = test system: HCI-027 (organoid from a triple-negative breast cancer xenograft)

Cc1cc(Nc2ncnc3ccc(NC4=NC(C)(C)CO4)cc23)ccc1Oc1ccn2ncnc2c1 [tucatinib]
CTG-3D luminescence at 96 h
Conditions	12.5 pM	0.00025 µM	0.005 µM	0.1 µM	1 µM	10 µM	100 µM	625 fM
HCI-008, days in culture: 228	1.79	1.66	1.49	1.85	1.83	1.5	0.0233	1.8641
HCI-008, days in culture: 244	1.41	1.81	2.11	1.99	1.83	1.84	0.0167	2.29
HCI-010, days in culture: 52	2.07	2.16	2.18	2.37	2.53	2.2	0.0134	2.34
HCI-010, days in culture: 65	1.6	1.68	1.97	1.81	1.83	1.4	0.008	1.64
HCI-010, days in culture: 103	3.37	3.95	3.45	3.39	3.5	2.84	0.014	3.37
HCI-011.E2, days in culture: 74	2.22	2.98	1.74	2.19	2.18	3	0.399	2.84
HCI-023, days in culture: 111	1.15	1.13	1.06	1.2	0.941	1.06	0.00921	1.65
HCI-023, days in culture: 128	1.78	1.62	1.59	2.03	1.5	1.59	0.0109	1.69
HCI-025, days in culture: 172	3	1.87	3.97	2.2	2.35	1.75	0.0232	2.16
HCI-025, days in culture: 209	1.95	2.11	2.45	1.5	1.95	1.9	0.0118	1.06
HCI-025, days in culture: 218	1.26	1.91	1.79	1.43	1.02	1.62	0.249	1.71
HCI-027, days in culture: 176	2.4	1.31	2.9	2.1	1.61	0.414	0.0112	1.82
HCI-027, days in culture: 194	1.81	1.55	1.49	1.66	2.06	1.41	0.0114	1.7
HCI-027, days in culture: 201	2.47	2.58	2.3	2.28	2.1	0.716	0.01	2.42

HCI-011.E2
Conditions	CTG-3D luminescence at 96 h
12.5 pM	1.7
0.00025 µM	1.59
0.005 µM	1.4
0.1 µM	1.87
1 µM	1.52
10 µM	1.91
100 µM	0.142
625 fM	1.5

CS(=O)(=O)c1ccc(C(=O)Nc2ccc(Cl)c(-c3ccccn3)c2)c(Cl)c1 [vismodegib]
CTG-3D luminescence at 96 h
Conditions	12.5 pM	0.00025 µM	0.005 µM	0.1 µM	1 µM	10 µM	100 µM	625 fM
HCI-008, days in culture: 228	1.56	1.74	1.17	1.72	1.46	1.46	0.622	1.79
HCI-008, days in culture: 244	1.7	2.21	1.95	2.27	2.19	2.07	1.01	2.24
HCI-010, days in culture: 52	1.83	1.98	2.08	2.26	2.4	2.15	0.825	1.78
HCI-010, days in culture: 65	1.54	1.74	1.56	1.6	1.71	1.5	0.574	1.59
HCI-010, days in culture: 103	2.84	3.06	3	3.14	2.91	2.62	1.52	2.8
HCI-011.E2, days in culture: 74	2.31	1.93	1.98	2.31	2.12	3.48	1.49	2.36
HCI-023, days in culture: 111	1.92	1.62	1.41	1.48	1.15	1.34	0.248	1.6
HCI-023, days in culture: 128	1.29	1.4	1.39	1.46	1.31	1.86	0.552	1.67
HCI-025, days in culture: 172	3.09	1.78	3.88	2.18	2.97	1.37	0.368	2.37
HCI-025, days in culture: 209	1.85	2.63	2.69	1.56	2.47	1.4	0.0933	1.57
HCI-025, days in culture: 218	1.48	1.67	2.01	1.69	1.56	1.88	-0.104	1.87
HCI-027, days in culture: 176	2.64	1.85	2.83	2.12	2.22	1.1	-0.204	2.79
HCI-027, days in culture: 194	2.59	1.87	2.35	2.35	2.6	2.12	-0.0508	2.34
HCI-027, days in culture: 201	3.03	3.03	3.44	2.6	3.36	1.74	0.019	3.54

HCI-011.E2
Conditions	CTG-3D luminescence at 96 h
12.5 pM	1.44
0.00025 µM	1.41
0.005 µM	1.58
0.1 µM	1.72
1 µM	1.61
10 µM	1.85
100 µM	1.13
625 fM	1.67

CNC(=O)c1cccc(-c2ccc3c(N4CCOC[C@@H]4C)nc(N4CCOC[C@@H]4C)nc3n2)c1 [vistusertib]
CTG-3D luminescence at 96 h
Conditions	12.5 pM	0.00025 µM	0.005 µM	0.1 µM	1 µM	10 µM	100 µM	625 fM
HCI-008, days in culture: 228	1.54	1.64	1.41	0.913	0.71	0.548	0.289	1.66
HCI-008, days in culture: 244	1.33	1.73	2.19	1.74	1.08	0.812	0.329	2.1
HCI-010, days in culture: 52	2.1	2.32	2.14	1.57	0.904	0.76	0.17	2.19
HCI-010, days in culture: 65	1.67	1.73	1.69	1.14	0.708	0.543	0.0432	1.68
HCI-010, days in culture: 103	3.33	3.37	3.25	1.95	1.51	1.24	0.419	3.04
HCI-011.E2, days in culture: 74	3.1	2.54	2.03	1	0.26	0.247	0.0598	2.38
HCI-023, days in culture: 111	1.41	1.27	1.29	1.09	0.468	0.406	0.242	1.5
HCI-023, days in culture: 128	1.83	1.59	1.44	1.27	0.78	0.864	0.541	1.7
HCI-025, days in culture: 172	2.8	1.41	1.7	0.95	0.649	0.279	0.41	2.26
HCI-025, days in culture: 209	1.74	2.05	2.28	0.89	0.395	0.287	0.239	2.1
HCI-025, days in culture: 218	1.49	1.78	1.94	0.816	0.249	0.373	0.201	1.44
HCI-027, days in culture: 176	2.07	1.54	3.05	1.73	0.81	0.32	0.123	2.96
HCI-027, days in culture: 194	1.93	1.49	1.77	1.58	1.03	0.803	0.226	1.84
HCI-027, days in culture: 201	1.74	2.52	2.47	2.11	1.06	0.501	0.169	2.26

HCI-011.E2
Conditions	CTG-3D luminescence at 96 h
12.5 pM	1.477
0.00025 µM	1.841
0.005 µM	1.52
0.1 µM	1.23
1 µM	0.256
10 µM	0.212
100 µM	0.057
625 fM	1.59
